According to patent EP4737450A1 (Longwood Pharmaceuticals (Hangzhou) Co., Ltd, priority 2023, dated 2025):
Read-outs that look alike come from different tables or passages of the source.

Tests used:
plasma kallikrein (PKa) = biological target: T1, plasma kallikrein (PKa) (Homo sapiens, UniProt P03952); experiment: Inhibitory activity against plasma kallikrein in vitro (fluorescence intensity enzyme assay, Pro-Phe-Arg-AMC substrate); format: biochemical
T1 construct: purchased R & D 2497-SE
In short: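 Fluorescence intensity enzyme assay with 10 nM enzyme and 60 µM Pro-Phe-Arg-AMC (final concentrations). Compounds in DMSO, tested in duplicate over a dose series. IC50 from nonlinear regression curve fitting.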

KLK1 = KLK1 (Homo sapiens, UniProt P06870); experiment: Inhibitory activity against KLK1 in vitro (biochemical assay)
Sequence of KLK1 (P06870 25-262, species assumed): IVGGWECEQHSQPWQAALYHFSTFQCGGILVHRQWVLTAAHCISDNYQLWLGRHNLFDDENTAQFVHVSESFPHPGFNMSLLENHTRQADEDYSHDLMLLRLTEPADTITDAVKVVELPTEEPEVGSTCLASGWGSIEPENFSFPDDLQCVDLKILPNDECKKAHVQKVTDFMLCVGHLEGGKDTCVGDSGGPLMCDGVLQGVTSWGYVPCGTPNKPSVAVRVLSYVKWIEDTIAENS
Description: Test Example 1. Test of the inhibitory activities of the compounds of the present invention against plasma kallikrein (PKa), KLK1 and FXIa in vitro. […]

FXIa = FXIa (Homo sapiens, UniProt P03951); experiment: Inhibitory activity against FXIa in vitro (biochemical assay)
Sequence of FXIa (P03951 388-625 limits assumed): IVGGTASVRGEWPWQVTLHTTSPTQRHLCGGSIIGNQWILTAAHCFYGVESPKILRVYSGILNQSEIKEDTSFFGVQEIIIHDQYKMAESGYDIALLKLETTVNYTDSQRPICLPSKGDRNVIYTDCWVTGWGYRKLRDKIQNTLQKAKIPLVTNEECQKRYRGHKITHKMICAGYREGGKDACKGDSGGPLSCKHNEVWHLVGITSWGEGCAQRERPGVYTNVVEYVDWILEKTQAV
Sequence of FXIa (P03951 19-387 partner limits assumed): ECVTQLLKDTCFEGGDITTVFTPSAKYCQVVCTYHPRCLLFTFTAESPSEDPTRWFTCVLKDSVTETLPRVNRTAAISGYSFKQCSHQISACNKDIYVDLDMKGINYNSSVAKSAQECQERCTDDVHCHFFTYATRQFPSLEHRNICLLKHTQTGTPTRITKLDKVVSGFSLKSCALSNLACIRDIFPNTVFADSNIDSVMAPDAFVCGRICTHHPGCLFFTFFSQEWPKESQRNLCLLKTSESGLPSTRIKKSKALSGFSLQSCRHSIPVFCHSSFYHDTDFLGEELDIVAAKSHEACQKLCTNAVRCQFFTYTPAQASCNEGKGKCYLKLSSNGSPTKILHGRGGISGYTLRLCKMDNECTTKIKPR
Procedure: Test Example 1. Test of the inhibitory activities of the compounds of the present invention against plasma kallikrein (PKa), KLK1 and FXIa in vitro.
PKK (R & D, Cat # 2497-SE) and Pro-Phe-Arg-AMC (Nanjing Peptide, Cat # NJP23946) solutions were prepared in reaction buffer (50 mM Tris-HCl, pH 7.5, 250 mM NaCl). The final concentrations of enzyme protein and Pro-Phe-Arg-AMC in the reaction mixture were 10 nM and 60 µM, respectively. The starting concentration of the positive reference substance Avoralstat was 100 nM, 3-fold dilution, 10 + 0 dose. 0.05 µL of compound in 100% DMSO was delivered to a 384-well plate by an acoustic liquid delivery technique (Echo665; nanoliter range). Compound duplex test. 5 µL of 2 × enzyme solution was transferred to a 384 reaction plate and centrifuged at 1000 rpm for 1 minute, incubated at 25°C for 15 minutes; 5 µL of 2 × Pro-Phe-Arg-AMC solution was transferred to a 384 reaction plate, centrifuged at 1000 rpm for 1 minute, incubated at 25°C for 3 hours. […] IC50 values and nonlinear regression curve fitting were obtained using GraphPad Prism software.

[1] = plasma kallikrein enzyme assay, Pro-Phe-Arg-AMC substrate, read-out: PKa IC50
[2] = PKa IC50, plasma kallikrein enzyme assay, Pro-Phe-Arg-AMC substrate

T1 sequence (P03952 391-638 limits assumed): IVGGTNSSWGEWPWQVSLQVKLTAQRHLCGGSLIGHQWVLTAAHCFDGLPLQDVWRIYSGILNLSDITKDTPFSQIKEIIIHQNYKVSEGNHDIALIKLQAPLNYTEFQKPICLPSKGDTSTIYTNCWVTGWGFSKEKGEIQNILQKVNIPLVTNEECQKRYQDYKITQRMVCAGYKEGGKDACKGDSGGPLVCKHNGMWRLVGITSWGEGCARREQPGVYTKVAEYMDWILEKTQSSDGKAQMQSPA
T1 sequence (P03952 20-390 partner limits assumed): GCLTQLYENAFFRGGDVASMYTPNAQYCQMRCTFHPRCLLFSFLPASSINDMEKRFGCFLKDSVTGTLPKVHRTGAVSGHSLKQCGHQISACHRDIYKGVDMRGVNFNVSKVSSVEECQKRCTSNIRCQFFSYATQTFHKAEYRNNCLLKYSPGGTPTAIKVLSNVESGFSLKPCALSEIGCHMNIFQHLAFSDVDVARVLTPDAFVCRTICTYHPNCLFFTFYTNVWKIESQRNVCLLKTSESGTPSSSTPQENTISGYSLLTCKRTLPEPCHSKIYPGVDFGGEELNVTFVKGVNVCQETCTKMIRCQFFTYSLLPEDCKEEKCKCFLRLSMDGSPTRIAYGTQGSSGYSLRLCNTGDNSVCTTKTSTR

Molecule	IC50 (plasma kallikrein (PKa); [1])	IC50 (KLK1; values given in µM)	IC50 (FXIa; values given in µM)	further results
N#Cc1cc(N2CC3C(C2)C3(F)F)ccc1Cn1cnc(C(=O)NC2CCc3cc(N)ncc32)n1 (single isomer, unassigned) [Compound 54]	0.46 nM	> 10 µM	> 10 µM	–
Cc1cc(N)nc(C)c1CNC(=O)c1ccc(Cc2ccc3ncc(Cl)cc3c2)s1 [Compound 3, N-((6-amino-2,4-dimethylpyridin-3-yl)methyl)-5-((3-chloroquinolin-6-yl)methyl)thiophene-2-carboxamide]	9.27 nM	–	–	IC50 (KLK1; values in nM): < 0.5 µM; IC50 (FXIa; values in nM): < 0.5 µM
COCc1nn(Cc2ccc3ncc(Cl)cc3c2)cc1C(=O)NCc1c(C)cc(N)nc1C [Compound 5, N-((6-amino-2,4-dimethylpyridin-3-yl)methyl)-1-((3-chloroquinolin-6-yl)methyl)-3-(methoxymethyl)-1H-pyrazole-4-carboxamide]	0.6 nM	–	–	IC50 (KLK1; values in nM): < 0.5 µM; IC50 (FXIa; values in nM): < 0.5 µM
Cc1cc(N)nc(C)c1CNC(=O)c1cn(Cc2cn3cc(C4CC4)ccc3n2)nn1 [Compound 6, N-((6-amino-2,4-dimethylpyridin-3-yl)methyl)-1-(6-cyclopropylimidazo[1,2-a]pyridin-2-yl)methyl-1H-1,2,3-triazole-4-carboxamide]	0.032 nM	–	–	IC50 (KLK1; values in nM): < 0.5 µM; IC50 (FXIa; values in nM): < 0.5 µM
Cc1cc(N)nc(C)c1CNC(=O)c1cnn(Cc2ccc(N3CC4C(C3)C4(F)F)cc2C#N)c1 (centres unmarked) [Compound 7, N-((6-amino-2,4-dimethylpyridin-3-yl)methyl)-1-(2-cyano-4-(6,6-difluoro-3-azabicyclo[3.1.0]hexan-3-yl)benzyl)-1H-pyrazole-4-carboxamide]	< 0.051 nM	> 10 µM	> 10 µM	–
N#Cc1cc(N2CC3C(C2)C3(F)F)ccc1Cn1cc(C(=O)NCc2ccc(C(=N)N)cc2)cn1 (centres unmarked) [Compound 8]	1.22 nM	–	–	IC50 (KLK1; values in nM): < 0.5 µM; IC50 (FXIa; values in nM): < 0.5 µM
Cc1cc(N)nc(C)c1CNC(=O)c1cn(Cc2ccc3ncc(Cl)cc3c2)nn1 [Compound 9, N-((6-amino-2,4-dimethylpyridin-3-yl)methyl)-1-(3-chloroquinolin-6-yl)methyl-1H-1,2,3-triazole-4-carboxamide]	0.406 nM	–	–	IC50 (KLK1; values in nM): < 0.5 µM; IC50 (FXIa; values in nM): < 0.5 µM
Cc1cc(N)nc(C)c1CNC(=O)c1cnn(Cc2ccc3ncc(Cl)cc3c2)c1 [Compound 10, N-((6-amino-2,4-dimethylpyridin-3-yl)methyl)-1-((3-chloroquinolin-6-yl)methyl)-1H-pyrazole-4-carboxamide]	0.132 nM	> 10 µM	> 10 µM	–
N=C(N)c1ccc(CNC(=O)c2cnn(Cc3ccc(Cn4ccccc4=O)cc3)c2)cc1 [Compound 12]	1.62 nM	> 10 µM	> 10 µM	–
Cc1cc(N)nc(C)c1CNC(=O)c1cc(Cc2ccc(Cn3ccccc3=O)cc2)ccn1 [Compound 13]	–	> 10 µM	> 10 µM	IC50 (plasma kallikrein (PKa); [2]): 0.516 nM
N=C(N)c1ccc(CNC(=O)c2cnn(Cc3cn4cc(C5CC5)ccc4n3)c2)cc1 [Compound 15]	0.898 nM	> 10 µM	> 10 µM	–
CCc1cc(N2CC3C(C2)C3(F)F)ccc1Cn1cc(C(=O)NCc2ccc(C(=N)N)cc2)cn1 (centres unmarked) [Compound 16]	1.24 nM	> 10 µM	> 10 µM	–
Cc1cc(N)nc(C)c1CNC(=O)c1cnn(Cc2ccc(N3CC4C(C3)C4(F)F)cc2C#N)c1 (centres unmarked) [Compound 20]	–	–	> 10 µM	IC50 (plasma kallikrein (PKa); read-out: PKa IC50): 0.155 nM
COCc1nn(Cc2ccc(Cn3ccccc3=O)cc2)cc1C(=O)NCc1ncc2c(c1F)N(C)CC2 [Compound 146]	–	> 10 µM	> 10 µM	–
N#Cc1cc(N2CCC(F)(F)CC2)ccc1Cn1cc(C(=O)NCc2ccc(C(=N)N)cc2)cn1 [Compound 158]	–	> 10 µM	> 10 µM	–
COc1ccnc(CNC(=O)c2cn(Cc3ccc(Cn4ccccc4=O)cc3)nc2-c2c(C)cnn2C)c1F [Compound 221, N-((3-fluoro-4-methoxypyridin-2-yl)methyl)-2',4'-dimethyl-1-(4-((2-oxopyridin-1(2H)yl)methyl)benzyl)-1H,2'H-[3,3'-bispyrazole]-4-carboxamide]	–	> 10 µM	> 10 µM	–
O=C(NCc1nccc(NC2COC2)c1F)c1cn(Cc2ccc(Cn3ccccc3=O)cc2)nc1N1CC(F)(F)C1 [Compound 332]	540 nM	–	–	–
O=C(NCc1nccc(N2CCCC2)c1F)c1cn(Cc2ccc(CC3CC3)cc2)nc1C1COC1 [Compound 333]	> 1000 nM	–	–	–

Molecule	IC50 (plasma kallikrein (PKa); [1])	IC50 (KLK1; values given in µM)	IC50 (FXIa; values given in µM)	further results
CN(C)c1ccnc(CNC(=O)c2cn(Cc3ccc(CC4CC4)cc3)nc2C2COC2)c1F [Compound 334]	421 nM	–	–	–
Cn1ccc2c(CNC(=O)c3cn(Cc4ccc(Cn5ccccc5=O)cc4)nc3C3COC3)nccc21 [Compound 336]	13.9 nM	–	–	–
O=C(NCc1nccc(C2CC2)c1F)c1cn(Cc2ccc(Cn3ccccc3=O)cc2)nc1C1COC1 [Compound 339]	31.6 nM	–	–	–
O=C(NCc1nccc(C2CC2)c1F)c1cn(Cc2ccc(Cn3ccccc3=O)cc2)nc1C1CC(F)(F)C1 [Compound 340]	48 nM	–	–	–
CN(C)c1ccnc(CNC(=O)c2cn(Cc3ccc(Cn4ccccc4=O)cc3)nc2C2CC(F)(F)C2)c1F [Compound 342]	6.29 nM	–	–	–
O=C(NCc1nccc(C2CC2)c1F)c1cn(Cc2ccc(CC3CC3)cc2)nc1C1COC1 [Compound 343]	> 1000 nM	–	–	–
CNc1ccnc(CNC(=O)c2cn(Cc3ccc(CC4CC4)cc3)nc2C2COC2)c1F [Compound 344]	237 nM	–	–	–
O=C(NCc1nccc(N2CCC2)c1F)c1cn(Cc2ccc(Cn3ccccc3=O)cc2)nc1C1COC1 [Compound 346]	5.64 nM	–	–	–
N/C(=N\O)c1ccc(CNC(=O)c2cnn(Cc3ccc(CC4CC4)cc3)c2)cc1 [Compound 348, (Z)-1-(4-(cyclopropylmethyl)benzyl)-N-(4-(N'-hydroxycarbamoyl)benzyl)-1H-pyrazole-4-carboxamide]	–	–	–	IC50 (plasma kallikrein (PKa); [2]): 3.75 nM
O=C(NCc1nccc(-n2nccn2)c1F)c1cn(Cc2ccc(Cn3ccccc3=O)cc2)nc1C1COC1 [Compound 352]	90 nM	–	–	–
N=C(N)c1cnc(CNC(=O)c2cnn(Cc3ccc(CC4CC4)cc3)c2)c(F)c1 [Compound 358]	6.06 nM	–	–	–
N=C(N)c1ccc(CNC(=O)c2cnn(Cc3c(Cl)cc(OCC4CC4)cc3Cl)c2)cc1 [Compound 359]	3.15 nM	–	–	–
N=C(N)c1ccc(CNC(=O)c2cnn(Cc3ccc(OCC4CC4)cc3)c2)cc1 [Compound 360]	3.29 nM	–	–	–
Cn1cc(Cl)c2cnc(CNC(=O)c3cnn(Cc4ccc(Cn5ccccc5=O)cc4)c3)c(F)c21 [Compound 367]	43 nM	–	–	–
O=C(NCc1ncc2ccn(CCO)c2c1F)c1cnn(Cc2ccc(Cn3ccccc3=O)cc2)c1 [Compound 369, N-((7-fluoro-1-(2-hydroxyethyl)-1H-pyrrolo[3,2-c]pyridin-6-yl)methyl)-1-(4-((2-oxopyridin-1(2H)-yl)methyl]benzyl)-1H-pyrazole-4-carboxamide]	787 nM	–	–	–
Cn1ncc2cnc(CNC(=O)c3cnn(Cc4ccc(Cn5ccccc5=O)cc4)c3)c(F)c21 [Compound 376]	67 nM	–	–	–
COCc1nn(Cc2ccc(Cn3ccccc3=O)cc2)cc1C(=O)NCc1nccc(OC)c1F [KVD900, reference compound]	–	> 10 µM	> 10 µM	–
N-((3-fluoro-4-methoxypyridin-2-yl)methyl)-3-(methoxymethyl)-1-(4-((2-oxo-2,3-dihydro-1H-pyrrolo[3,2-b]pyridin-1-yl)methyl]benzyl)-1H-pyrazole-4-carboxamide [Compound 113]	> 100 nM	–	–	–
